≈ marks a conversion by molar mass, not a printed value. Entries after “also recorded” stand apart in the source; their conditions may differ. Like-named read-outs stand apart in the source and are kept apart here.
Tests used:
[1] = system: isolated heart of the rabbit; test: Cardiac action on the isolated heart of a rabbit (Langendorf preparation); conditions: for EC20: Oryctolagus cuniculus
Procedure: (§1) This was examined according to known methods in the isolated auricle (Trevan preparation) and in the isolated heart of a rabbit (Langendorf preparation).
In the Langendorf preparation, the action of the compounds was determined from three parameters; the amplitude of contractions, coronary delivery, and rhythm. […] The results are indicated in Table 1; an arrow ↓ indicates a diminution, and an arrow ↑ an augmentation.

[2] = Toxicity, intravenous in the mouse; conditions: in vivo, i.v.
Procedure: The toxicities of the various compound were determined intravenously in the mouse.

[3] = system: anaethestized dog; test: Action on femoral delivery, aortal pressure and cardiac rhythm in the anaesthetized dog; assay type: in vivo
Procedure: This was investigated in an anaethestized dog, the compounds under test being administered by intraveneous perfusion (over 5 minutes). The various compounds under test were compared by administering all of them at a dose per kilogram corresponding to 1/10 of the mouse LD50 (I.V.).
Simultaneously were measured: variations of femoral delivery, aortal pressure, and cardiac rhythm. Table II indicates the maximum variations of these different parameters observed over the 30 minutes which followed administration of various compounds. These variations are expressed in percent based on the initial values.

[4] = system: platelet aggregation; test: Platelet aggregation in human blood; assay type: cell-based
[5] = system: rat; test: Protection against cerebral isochaemial hypoxy in the rat (clamping of carotid and basilar artery, E.E.G.); assay type: in vivo; conditions: 5 mg/kg i.v.
Procedure: The protective effect of the compound of Example 3 with regard to cerebal isochaemal hypoxy is shown for at least 3 hours after injection.

[6] = system: dog; test: Cardiac isochaemal hypoxy in the dog (Sodi-Pallares preparation); assay type: in vivo; conditions: i.v. 10 or 25 mg/kg
Procedure: After ligature of the anterior intraventricular coronary artery (Sodi-Pallares preparation), intravenous administration of 10 or 25 mg/kg of the compound of Example 3, increased the strength of cardiac contractions and the ventricular dp/dt return, which reflects a […] in the contractile state of the myocardial fibres.

[7] = system: cardiovascular system; test: Overall action on the cardiovascular system; assay type: in vivo
Text: Compounds in accordance with the invention have shown a marked action on the cardiovascular system, particularly as coronary and cerebal peripheral vasodilators. Some of the compounds have also shown activity as hypotensives or hypertensives. […] In these tests, aqueous solutions of the salts described in the cited Examples were used.

[8] = system: isolated auricle; test: Cardiac action on the isolated auricle (Trevan preparation): amplitude of contractions; conditions: arrows for diminution/increase are drawings, 0 = inactive, read-out: Action on the isolated auricle: minimum concentration producing a variation of 20% in amplitude of contractions
Procedure: as §1
Cardiac action of the compounds in question was evaluated according to the amplitude of contractions of the isolated auricle.

[9] = Hygroscopicity of the hydrochloride; assay type: physicochemical; conditions: hydrochloride salt
[10] = direction arrow is a drawing, read-out: Amplitude of contractions: concentration producing a variation of 20%
[11] = i.v. perfusion over 5 min, dose 1/10 of mouse LD50, percent based on initial values

## O=C1C=C2CCCCC2N1c1ccc(OCCN2CCOCC2)cc1 (stereo not shown) [Example 3, 1-[4-(2-morpholinoethoxy)-phenyl]-2-oxo-2,4,5,6,7,7a-hexahydro-indole]
[1]
  Coronary delivery (in words): did not modify coronary rhythm or augment coronary delivery
  Coronary rhythm (in words): did not modify coronary rhythm
[1]; augmentation, read-out: Concentration providing an augmentation of 20% in the amplitude of contractions
  EC20: 10 µg/mL (≈ 29.2 µM)
[1]; [10]
  EC20: 10 µg/mL (≈ 29.2 µM)
[1]; direction arrow is a drawing, read-out: Coronary delivery: concentration producing a variation of 20%
  EC20: 20 µg/mL (≈ 58.4 µM)
[2]
  LD50: 225 mg/kg
[3]; anaesthetized dog, i.v.
  Aortal pressure (in words): without modifying aortal pressure; also recorded: without changes in aortal pressure
  Cardiac frequency (in words): without modifying aortal pressure or cardiac frequency
[3]; anaesthetized dog, i.v., 1/10 of mouse LD50
  Vasodilator action (in words): clearly vasodilators
[3]; anaesthetized dog, i.v., listed as Example 4
  Aortal pressure (in words): without changes in aortal pressure
[3]; [11]
  Aortal pressure, maximum variation in 30 minutes: 0%
[4]; 1 × 10^-5 (unit not given), A.D.P. 5 mM/l
  Inhibition of platelet aggregation induced by A.D.P.: inhibited platelet aggregation
[4]; 1 × 10^-5 (unit not given), collagen 200 mg/cm^3
  Inhibition of platelet aggregation induced by collagen: inhibited platelet aggregation
[4]; 2 × 10^-4 M, adrenalin 2.5 mcM/l
  Inhibition of platelet aggregation induced by adrenalin: inhibited platelet aggregation
[5]
  Protection with regard to cerebral isochaemial hypoxy: marked protecting properties
[5]; after beginning of clamping
  Delay in the appearance of electrical silence in the E.E.G.: significantly increased
[5]; after injection
  Duration of protective effect with regard to cerebral hypoxy: at least 3 hours
[5]; after removal of the clamps
  Delay in normalization of the E.E.G. trace: significantly reduced
[5]; during clamping and after removal of clamps
  Period of electrical silence of the E.E.G.: significantly reduced
[6]
  Protection with regard to cardiac isochaemal hypoxy: showed protective properties
[6]; after coronary artery ligature
  Strength of cardiac contractions: increased
  Ventricular dp/dt return: increased
[7]; aqueous solutions of the salts
  Action on the cardiovascular system (in words): vasodilators, this action being shown on coronary delivery, femoral delivery and vertebral delivery
[7]; in vivo
  Cardiac frequency on increase in amplitude of cardiac contractions (in words): modified and transitory increase in cardiac frequency

## CN(C)CCOc1ccc(N2C(=O)C=C3CCCCC32)cc1Cl (stereo not shown) [Example 15, 1-[3-chloro-4-(2-dimethylaminoethoxy)-phenyl]-2-oxo-2,4,5,6,7,7a-hexahydro-indole]
[8]
  EC20: 5 µg/mL (≈ 14.9 µM)
[1]; [10]
  EC20: 1 µg/mL (≈ 2.99 µM)
[1]; direction arrow is a drawing, read-out: Rhythm: concentration producing a variation of 20%
  EC20: 1 µg/mL (≈ 2.99 µM)
[2]
  LD50: 15 mg/kg
[3]; [11]
  Aortal pressure, maximum variation in 30 minutes: 0%
  Cardiac Rhythm, maximum variation in 30 minutes: 0%
[9]
  Hygroscopicity: hygroscopic and absorbed 1/2 mol of water from the air

— patent US4015002A, “1-Aryl-2-oxo-2,4,5,6,7,7a-hexahydro-indoles, salts, pharmaceutical compositions and methods of use” (Laboratoire Roger Bellon, priority 1974, dated 1977)
